{
  "source": "ChEMBL document CHEMBL3091344",
  "about": "“17(E)-picolinylidene androstane derivatives as potential inhibitors of prostate cancer cell growth: antiproliferative activity and molecular docking studies” (Bioorg Med Chem, 2013)",
  "key": {"[1]": {"test_system": "MRC5", "assay": "Cytotoxicity against human MRC5 cells assessed as growth inhibition after 48 hrs by SRB assay", "format": "cell-based", "conditions": "MRC5, 48 h"}, "[2]": {"test_system": "MCF7", "assay": "Cytotoxicity against ER-positive human MCF7 cells assessed as growth inhibition after 48 hrs by SRB assay", "format": "functional, cell-based", "conditions": "MCF7, 48 h"}, "[3]": {"test_system": "PC-3", "assay": "Cytotoxicity against human PC3 cells assessed as growth inhibition after 48 hrs by SRB assay", "format": "functional, cell-based", "conditions": "PC-3, 48 h"}, "[4]": {"test_system": "MDA-MB-231", "assay": "Cytotoxicity against ER-negative human MDA-MB-231 cells assessed as growth inhibition after 48 hrs by SRB assay", "format": "functional, cell-based", "conditions": "MDA-MB-231, 48 h"}, "[5]": {"test_system": "MRC5", "assay": "Cytotoxicity against human MRC5 cells assessed as growth inhibition after 48 hrs by MTT assay", "format": "cell-based", "conditions": "MRC5, 48 h"}, "[6]": {"test_system": "HT-29", "assay": "Cytotoxicity against human HT-29 cells assessed as growth inhibition after 48 hrs by MTT assay", "format": "functional, cell-based", "conditions": "HT-29, 48 h"}, "[7]": {"test_system": "HeLa", "assay": "Cytotoxicity against human HeLa cells assessed as growth inhibition after 48 hrs by MTT assay", "format": "functional, cell-based"}, "[8]": {"test_system": "PC-3", "assay": "Cytotoxicity against human PC3 cells assessed as growth inhibition after 48 hrs by MTT assay", "format": "functional, cell-based", "conditions": "PC-3, 48 h"}, "[9]": {"test_system": "MCF7", "assay": "Cytotoxicity against ER-positive human MCF7 cells assessed as growth inhibition after 48 hrs by MTT assay", "format": "functional, cell-based", "conditions": "MCF7, 48 h"}, "[10]": {"test_system": "MDA-MB-231", "assay": "Cytotoxicity against ER-negative human MDA-MB-231 cells assessed as growth inhibition after 48 hrs by MTT assay", "format": "functional, cell-based", "conditions": "MDA-MB-231, 48 h"}},
  "data": [
    {"compound": "C[C@]12CCC(=O)C=C1CC[C@@H]1[C@@H]2CC[C@]2(C)/C(=C/c3ccccn3)CC[C@@H]12", "values": [
      {"measurement": "IC50", "setting": "[1]", "value": "> 100", "unit": "µM"},
      {"measurement": "IC50", "setting": "[2]", "value": "> 100", "unit": "µM"},
      {"measurement": "IC50", "setting": "[3]", "value": 12.9, "unit": "µM"},
      {"measurement": "IC50", "setting": "[4]", "value": "> 100", "unit": "µM"}
    ]},
    {"compound": "C#CCC[C@@]1(C)C(=O)CC[C@@H]2[C@@H]1CC[C@@]1(C)[C@H]2CC[C@@]1(O)Cc1ccccn1", "values": [
      {"measurement": "IC50", "setting": "[5]", "value": "> 100", "unit": "µM"},
      {"measurement": "IC50", "setting": "[6]", "value": 6.5, "unit": "µM"},
      {"measurement": "IC50", "setting": "[7]", "value": "> 100", "unit": "µM"},
      {"measurement": "IC50", "setting": "[8]", "value": "> 100", "unit": "µM"},
      {"measurement": "IC50", "setting": "[9]", "value": "> 100", "unit": "µM"},
      {"measurement": "IC50", "setting": "[10]", "value": "> 100", "unit": "µM"}
    ]},
    {"compound": "C[C@]12CC[C@H]3[C@@H](CC[C@@]4(O)C=CCC[C@]34C)[C@@H]1CC/C2=C\\c1ccccn1", "values": [
      {"measurement": "IC50", "setting": "[5]", "value": "> 100", "unit": "µM"},
      {"measurement": "IC50", "setting": "[6]", "value": 57.2, "unit": "µM"},
      {"measurement": "IC50", "setting": "[7]", "value": 49.4, "unit": "µM"},
      {"measurement": "IC50", "setting": "[8]", "value": "> 100", "unit": "µM"},
      {"measurement": "IC50", "setting": "[9]", "value": "> 100", "unit": "µM"},
      {"measurement": "IC50", "setting": "[10]", "value": "> 100", "unit": "µM"}
    ]},
    {"compound": "C[C@]12CC[C@H]3[C@@H](CC[C@]45O[C@H]4C(=O)CC[C@]35C)[C@@H]1CC/C2=C\\c1ccccn1", "values": [
      {"measurement": "IC50", "setting": "[5]", "value": "> 100", "unit": "µM"},
      {"measurement": "IC50", "setting": "[8]", "value": 14.3, "unit": "µM"},
      {"measurement": "IC50", "setting": "[9]", "value": 50.7, "unit": "µM"},
      {"measurement": "IC50", "setting": "[10]", "value": 88.3, "unit": "µM"}
    ]},
    {"compound": "C[C@]12CC[C@H]3[C@@H](CC[C@@]4(O)C=CCC[C@]34C)[C@@H]1CC[C@@]2(O)Cc1ccccn1", "values": [
      {"measurement": "IC50", "setting": "[5]", "value": "> 100", "unit": "µM"},
      {"measurement": "IC50", "setting": "[6]", "value": "> 100", "unit": "µM"},
      {"measurement": "IC50", "setting": "[7]", "value": "> 100", "unit": "µM"},
      {"measurement": "IC50", "setting": "[8]", "value": "> 100", "unit": "µM"},
      {"measurement": "IC50", "setting": "[9]", "value": "> 100", "unit": "µM"},
      {"measurement": "IC50", "setting": "[10]", "value": "> 100", "unit": "µM"}
    ]},
    {"compound": "C[C@]12CC[C@H]3[C@@H](CC[C@]45O[C@H]4C(=O)CC[C@]35C)[C@@H]1CC[C@@]2(O)Cc1ccccn1", "values": [
      {"measurement": "IC50", "setting": "[5]", "value": "> 100", "unit": "µM"},
      {"measurement": "IC50", "setting": "[8]", "value": 65.5, "unit": "µM"},
      {"measurement": "IC50", "setting": "[9]", "value": "> 100", "unit": "µM"},
      {"measurement": "IC50", "setting": "[10]", "value": 10.4, "unit": "µM"}
    ]},
    {"compound": "C[C@]12CC/C(=N\\N)C=C1CC[C@@H]1[C@@H]2CC[C@]2(C)/C(=C/c3ccccn3)CC[C@@H]12", "values": [
      {"measurement": "IC50", "setting": "[5]", "value": "> 100", "unit": "µM"},
      {"measurement": "IC50", "setting": "[6]", "value": 51.7, "unit": "µM"},
      {"measurement": "IC50", "setting": "[7]", "value": "> 100", "unit": "µM"},
      {"measurement": "IC50", "setting": "[8]", "value": 5.9, "unit": "µM"},
      {"measurement": "IC50", "setting": "[9]", "value": 13.6, "unit": "µM"},
      {"measurement": "IC50", "setting": "[10]", "value": 17.1, "unit": "µM"}
    ]},
    {"compound": "C[C@]12CC/C(=N\\N)C=C1CC[C@@H]1[C@@H]2CC[C@@]2(C)[C@H]1CC[C@@]2(O)Cc1ccccn1", "values": [
      {"measurement": "IC50", "setting": "[5]", "value": "> 100", "unit": "µM"},
      {"measurement": "IC50", "setting": "[6]", "value": "> 100", "unit": "µM"},
      {"measurement": "IC50", "setting": "[7]", "value": "> 100", "unit": "µM"},
      {"measurement": "IC50", "setting": "[8]", "value": "> 100", "unit": "µM"},
      {"measurement": "IC50", "setting": "[9]", "value": 6.3, "unit": "µM"},
      {"measurement": "IC50", "setting": "[10]", "value": 32.5, "unit": "µM"}
    ]},
    {"compound": "C[C@]12CCC(=O)C=C1CC[C@@H]1[C@@H]2CC[C@@]2(C)[C@H]1CC[C@@]2(O)Cc1ccccn1", "values": [
      {"measurement": "IC50", "setting": "[1]", "value": "> 100", "unit": "µM"},
      {"measurement": "IC50", "setting": "[2]", "value": "> 100", "unit": "µM"},
      {"measurement": "IC50", "setting": "[3]", "value": "> 100", "unit": "µM"},
      {"measurement": "IC50", "setting": "[4]", "value": "> 100", "unit": "µM"}
    ]},
    {"compound": "C[C@]12CC[C@H](O)CC1=CC[C@@H]1[C@@H]2CC[C@]2(C)C(c3cccnc3)=CC[C@@H]12", "note": "[ABIRATERONE]", "values": [
      {"measurement": "IC50", "setting": "[8]", "value": 9.32, "unit": "µM"}
    ]},
    {"compound": "COc1cccc2c1C(=O)c1c(O)c3c(c(O)c1C2=O)C[C@@](O)(C(=O)CO)C[C@@H]3O[C@H]1C[C@H](N)[C@H](O)[C@H](C)O1", "note": "[DOXORUBICIN]", "values": [
      {"measurement": "IC50", "setting": "[6]", "value": 0.32, "unit": "µM"},
      {"measurement": "IC50", "setting": "[9]", "value": 0.75, "unit": "µM"}
    ]},
    {"compound": "C[C@]12CCC(=O)C(O)=C1CC[C@@H]1[C@@H]2CC[C@]2(C)C(=O)CC[C@@H]12", "note": "[FORMESTANE]", "values": [
      {"measurement": "IC50", "setting": "[5]", "value": "> 100", "unit": "µM"},
      {"measurement": "IC50", "setting": "[6]", "value": "> 100", "unit": "µM"},
      {"measurement": "IC50", "setting": "[9]", "value": "> 100", "unit": "µM"}
    ]}
  ]
}
